Results published in patent publication US7294636B2, “Chemical compounds” (AstraZeneca AB, priority 2003, dated 2007).

Target: recombinant human CCR5 receptor (Homo sapiens, UniProt P51681)
Experiment: in vitro radioligand binding assay, inhibition of MIP-1α binding (scintillation proximity)
Conditions: displacement of 0.1 nM iodinated MIP-1α; membranes from Chinese hamster ovary cells expressing CCR5; negative log10 of IC50 (M); average if tested more than once
Protocol: The ability of compounds to inhibit the binding of MIP-1α was assessed by an in vitro radioligand binding assay. Membranes were prepared from Chinese hamster ovary cells which expressed the recombinant human CCR5 receptor. These membranes were incubated with 0.1 nM iodinated MIP-1α, scintillation proximity beads and various concentrations of the compounds of the invention in 96-well plates. The amount of iodinated MP-1α bound to the receptor was determined by scintillation counting. Competition curves were obtained for compounds and the concentration of compound which displaced 50% of bound iodinated MIP-1α was calculated (IC50).
In Table III the results are presented as Pic50 values. […] If a compound was tested more than once then the data below is an average of the probative tests results.

recombinant human CCR5 receptor, sequence (P51681 whole entry): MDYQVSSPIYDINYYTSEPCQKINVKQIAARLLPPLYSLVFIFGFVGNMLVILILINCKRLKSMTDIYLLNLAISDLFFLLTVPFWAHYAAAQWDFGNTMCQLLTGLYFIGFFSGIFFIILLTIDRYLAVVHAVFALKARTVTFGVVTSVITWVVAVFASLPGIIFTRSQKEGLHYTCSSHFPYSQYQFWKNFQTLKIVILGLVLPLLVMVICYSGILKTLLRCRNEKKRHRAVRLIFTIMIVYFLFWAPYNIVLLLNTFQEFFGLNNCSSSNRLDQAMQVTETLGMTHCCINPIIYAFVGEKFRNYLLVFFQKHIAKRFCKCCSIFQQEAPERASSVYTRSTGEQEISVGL

Row | SMILES | IC50
1 | CS(=O)(=O)c1ccc([C@@H](CCN2CCC(n3cnc4cc(S(C)(=O)=O)ccc43)CC2)c2cccc(F)c2)cc1 [Compound No. 1, (R)-1-{1-[3-(3-fluoro-phenyl)-3-(4-methanesulfonyl-phenyl)-propyl]-piperidin-4-yl}-5-methanesulfonyl-1H-benzoimidazole] | 1e-09 M
2 | Cc1nnc(C(C)C)n1C1CCN(CC[C@H](c2ccc(S(C)(=O)=O)cc2)c2cccc(F)c2)CC1 [Compound No. 2] | 3.98e-08 M
3 | CS(=O)(=O)c1ccc(Cc2noc(C3CCN(CC[C@@H](c4ccccc4)c4ccc(S(C)(=O)=O)cc4)CC3)n2)cc1 [Compound No. 3] | 1.26e-09 M
4 | CS(=O)(=O)c1ccc([C@@H](CCN2CCC(c3nc(Cc4ccccc4)no3)CC2)c2ccccc2)cc1 [Compound No. 4] | 1.58e-08 M
5 | CS(=O)(=O)c1ccc([C@@H](CCN2CCC(n3cnc4cc(S(C)(=O)=O)ccc43)CC2)c2ccccc2)cc1 [Compound No. 5] | 3.98e-09 M
6 | CSc1ccc(Cc2noc(C3CCN(CCC(c4ccccc4)c4ccc(S(C)(=O)=O)cc4)CC3)n2)cc1 (stereo not shown) [Compound No. 6] | 6.31e-08 M
7 | CS(=O)(=O)c1ccc([C@@H](CCN2CCC(n3cnc4cc(S(C)(=O)=O)ccc43)CC2)c2ccsc2)cc1 [Compound No. 7] | 1e-08 M

More lines, now with the values ahead:

Row | IC50 | SMILES
8 | 1e-08 M | CS(=O)(=O)c1ccc([C@@H](CCN2CCC(n3cnc4cc(S(C)(=O)=O)ccc43)CC2)c2cccs2)cc1 [Compound No. 8]
9 | 2e-08 M | CS(=O)(=O)c1ccc([C@@H](CCN2CCC(n3cnc4cc(S(C)(=O)=O)ccc43)CC2)c2ccc(Cl)s2)cc1 [Compound No. 9]
10 | 2e-08 M | CS(=O)(=O)c1ccc([C@@H](CCN2CCC(n3cnc4cc(S(C)(=O)=O)ccc43)CC2)c2cc(Cl)cs2)cc1 [Compound No. 10]
11 | 1e-09 M | CS(=O)(=O)c1ccc([C@@H](CCN2CCC(n3cnc4cc(S(C)(=O)=O)ccc43)CC2)c2cc(F)cc(F)c2)cc1 [Compound No. 11]
12 | 2e-08 M | Cc1nnc(C(C)C)n1C1CCN(CC[C@H](c2ccc(S(C)(=O)=O)cc2)c2cc(F)cc(F)c2)CC1 [Compound No. 12]
13 | 1.58e-07 M | Cc1noc(C2CCN(CC[C@@H](c3ccccc3)c3ccc(S(C)(=O)=O)cc3)CC2)n1 [Compound No. 13]
